Values quoted from earlier work as cited in patent US8859761B2, “Refining process of Cefamandole sodium” (Hainan Lingkang Pharmaceutical Co., Ltd., priority 2011, dated 2014).

SMILES: Cn1nnnc1SCC1=C(C(=O)[O-])N2C(=O)C(NC(=O)C(OC=O)c3ccccc3)C2SC1.[Na+] [Cefamandole nafate, sodium 7-D-(2-formyloxyphenylacetamide)-3-[(1-methyl-1H-tetrazol-5-yl)thiomethyl]-3-cephem-4-carboxylate]
- solubility in ethanol (ethanol): almost insoluble
- solubility in water (water): dissolves well
